Tested on: 935938-334-R-J1-PDC complex spheroid viability
Test: Anticancer human tumor 935938-334-R-J1-PDC patient-derived small intestine adenocarcinoma cell line growth inhibition [POLQ]
Conditions: for IC50: curve of first compound; for viability, T/C: stronger effect = lower value
Method in brief: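 PDC + HUVEC + MSC complex spheroids; POLQ inhibitors ± partner drugs; top conc. at/near clinical Cmax, else 10 microM (SN-38 1 microM), half-log dilutions; 37 degrees C, 5% CO2.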

[1] = second compound 0.0316 µM, first compound 0.00316 µM
[2] = second compound 0.0316 µM, first compound 0.01 µM
[3] = second compound 0.0316 µM, first compound 0.0316 µM
[4] = second compound 0.0316 µM, first compound 0.1 µM
[5] = second compound 0.0316 µM, first compound 0.316 µM
[6] = second compound 0.0316 µM, first compound 1 µM
[7] = second compound 0.1 µM, first compound 0.00316 µM
[8] = second compound 0.1 µM, first compound 0.01 µM
[9] = second compound 0.1 µM, first compound 0.0316 µM
[10] = second compound 0.1 µM, first compound 0.1 µM
[11] = second compound 0.1 µM, first compound 0.316 µM
[12] = second compound 0.1 µM, first compound 1 µM
[13] = second compound 0.316 µM, first compound 0.00316 µM
[14] = second compound 0.316 µM, first compound 0.01 µM
[15] = second compound 0.316 µM, first compound 0.0316 µM
[16] = second compound 0.316 µM, first compound 0.1 µM
[17] = second compound 0.316 µM, first compound 0.316 µM
[18] = second compound 0.316 µM, first compound 1 µM
[19] = second compound 1 µM, first compound 0.00316 µM
[20] = second compound 1 µM, first compound 0.01 µM
[21] = second compound 1 µM, first compound 0.0316 µM
[22] = second compound 1 µM, first compound 0.1 µM
[23] = second compound 1 µM, first compound 0.316 µM
[24] = second compound 1 µM, first compound 1 µM
[25] = second compound 3.16 µM, first compound 0.00316 µM
[26] = second compound 3.16 µM, first compound 0.01 µM
[27] = second compound 3.16 µM, first compound 0.0316 µM
[28] = second compound 3.16 µM, first compound 0.1 µM
[29] = second compound 3.16 µM, first compound 0.316 µM
[30] = second compound 3.16 µM, first compound 1 µM
[31] = second compound 10 µM, first compound 0.00316 µM
[32] = second compound 10 µM, first compound 0.01 µM
[33] = second compound 10 µM, first compound 0.0316 µM
[34] = second compound 10 µM, first compound 0.1 µM
[35] = second compound 10 µM, first compound 0.316 µM
[36] = second compound 10 µM, first compound 1 µM
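Note: spheroids exposed to drugs for seven days before viability read.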
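Throughout, for viability, T/C: 100% = DMSO vehicle control wells.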

C=CCn1c(=O)c2cnc(Nc3ccc(N4CCN(C)CC4)cc3)nc2n1-c1cccc(C(C)(C)O)n1 + Nc1ccc(C#CCN(C(=O)Cc2ncc(C(F)(F)F)cc2C(F)(F)F)c2ccc(F)cc2)nn1
IC50 (second compound 0.0316 µM): 534 nM
IC50 (second compound 0.1 µM): 661 nM
IC50 (second compound 0.316 µM): 592 nM
IC50 (second compound 1 µM): 273 nM
IC50 (second compound 3.16 µM): 601 nM
IC50 (second compound 10 µM): 478 nM
viability, T/C [1]: 90.4%
viability, T/C [2]: 93.5%
viability, T/C [3]: 73.8%
viability, T/C [4]: 79.8%
viability, T/C [5]: 77.2%
viability, T/C [6]: 19.1%
viability, T/C [7]: 76.5%
viability, T/C [8]: 81.3%
viability, T/C [9]: 92.6%
viability, T/C [10]: 96.6%
viability, T/C [11]: 89.5%
viability, T/C [12]: 29.1%
viability, T/C [13]: 85.8%
viability, T/C [14]: 70.4%
viability, T/C [15]: 72.1%
viability, T/C [16]: 99.6%
viability, T/C [17]: 77.1%
viability, T/C [18]: 26.2%
viability, T/C [19]: 80%
viability, T/C [20]: 105%
viability, T/C [21]: 82.3%
viability, T/C [22]: 107%
viability, T/C [23]: 43.6%
viability, T/C [24]: 25.4%
viability, T/C [25]: 95.9%
viability, T/C [26]: 79.3%
viability, T/C [27]: 61.8%
viability, T/C [28]: 85.4%
viability, T/C [29]: 88.7%
viability, T/C [30]: 24.3%
viability, T/C [31]: 96.7%
viability, T/C [32]: 82.6%
viability, T/C [33]: 118%
viability, T/C [34]: 81.3%
viability, T/C [35]: 65.4%
viability, T/C [36]: 25.2%

CCc1c2c(nc3ccc(O)cc13)-c1cc3c(c(=O)n1C2)COC(=O)[C@]3(O)CC + Nc1ccc(C#CCN(C(=O)Cc2ncc(C(F)(F)F)cc2C(F)(F)F)c2ccc(F)cc2)nn1
IC50 (second compound 0.0316 µM): 20.2 nM
IC50 (second compound 0.1 µM): 17.1 nM
IC50 (second compound 0.316 µM): 18.3 nM
IC50 (second compound 1 µM): 22.3 nM
IC50 (second compound 3.16 µM): 15.1 nM
IC50 (second compound 10 µM): 22.1 nM
viability, T/C [1]: 83.8%
viability, T/C [2]: 61.7%
viability, T/C [3]: 44.2%
viability, T/C [4]: 28.6%
viability, T/C [5]: 31.6%
viability, T/C [6]: 29.2%
viability, T/C [7]: 93.6%
viability, T/C [8]: 64.3%
viability, T/C [9]: 33.8%
viability, T/C [10]: 29.6%
viability, T/C [11]: 34.7%
viability, T/C [12]: 32%
viability, T/C [13]: 108%
viability, T/C [14]: 65.8%
viability, T/C [15]: 35.1%
viability, T/C [16]: 36.2%
viability, T/C [17]: 30.6%
viability, T/C [18]: 28.9%
viability, T/C [19]: 109%
viability, T/C [20]: 81.8%
viability, T/C [21]: 36.1%
viability, T/C [22]: 32.6%
viability, T/C [23]: 34.4%
viability, T/C [24]: 30.1%
viability, T/C [25]: 93.2%
viability, T/C [26]: 51.8%
viability, T/C [27]: 43.9%
viability, T/C [28]: 40.4%
viability, T/C [29]: 30.8%
viability, T/C [30]: 30.6%
viability, T/C [31]: 88.8%
viability, T/C [32]: 67.9%
viability, T/C [33]: 41%
viability, T/C [34]: 37.3%
viability, T/C [35]: 31%
viability, T/C [36]: 32.2%

COc1cc(C2c3cc4c(cc3C(OC3OC5COC(C)OC5C(O)C3O)C3COC(=O)C23)OCO4)cc(OC)c1O (stereo unspecified) + Nc1ccc(C#CCN(C(=O)Cc2ncc(C(F)(F)F)cc2C(F)(F)F)c2ccc(F)cc2)nn1
IC50 (second compound 0.0316 µM): 832 nM
IC50 (second compound 0.1 µM): 666 nM
IC50 (second compound 0.316 µM): 762 nM
IC50 (second compound 1 µM): 616 nM
IC50 (second compound 3.16 µM): 597 nM
IC50 (second compound 10 µM): 565 nM
viability, T/C [3]: 95.1%
viability, T/C [4]: 86.1%
viability, T/C [5]: 87.8%
viability, T/C [6]: 42.9%
viability, T/C (second compound 0.0316 µM, first compound 3.16 µM): 26.8%
viability, T/C (second compound 0.0316 µM, first compound 10 µM): 31.6%
viability, T/C [9]: 99.5%
viability, T/C [10]: 90.8%
viability, T/C [11]: 74.5%
viability, T/C [12]: 35.5%
viability, T/C (second compound 0.1 µM, first compound 3.16 µM): 37.5%
viability, T/C (second compound 0.1 µM, first compound 10 µM): 29.9%
viability, T/C [15]: 108%
viability, T/C [16]: 68.9%
viability, T/C [17]: 69.1%
viability, T/C [18]: 49.6%
viability, T/C (second compound 0.316 µM, first compound 3.16 µM): 31.2%
viability, T/C (second compound 0.316 µM, first compound 10 µM): 30.4%
viability, T/C [21]: 83.3%
viability, T/C [22]: 89.2%
viability, T/C [23]: 60.3%
viability, T/C [24]: 43.9%
viability, T/C (second compound 1 µM, first compound 3.16 µM): 28%
viability, T/C (second compound 1 µM, first compound 10 µM): 31.7%
viability, T/C [27]: 109%
viability, T/C [28]: 86.7%
viability, T/C [29]: 64.6%
viability, T/C [30]: 37.6%
viability, T/C (second compound 3.16 µM, first compound 3.16 µM): 32.7%
viability, T/C (second compound 3.16 µM, first compound 10 µM): 31.3%
viability, T/C [33]: 110%
viability, T/C [34]: 79.2%
viability, T/C [35]: 64.8%
viability, T/C [36]: 38.4%
viability, T/C (second compound 10 µM, first compound 3.16 µM): 29%
viability, T/C (second compound 10 µM, first compound 10 µM): 33.7%
